Results on 5 molecules are retold here after patent US20190111026A1, “ANTI-TRITRICHOMONAS AGENT” (Pola Pharma Inc., priority 2016, published 2019).

Series [1] deals with Tritrichomonas mobilensis. The experiment in a line: Anti-Tritrichomonas activity of solid ground luliconazole (viable count, growth inhibition rate). In kind it is cell-based. Particulars: 35° C., 24 hours; for Viable Cell Count Ave.: 5 mg solid in 5 mL Diamond's medium with 10% adult bovine serum, 10,000 cells inoculated; for Growth Inhibition Rate: 5 mg solid in 5 mL medium, 10,000 cells, [(control-sample)/control]×100. On the procedure:
It is noted that the growth inhibition rate is calculated as follows: [(the number of viable cells of the control group−the number of viable cells of the sample group)/the number of viable cells of the control group]×100. It is preferred that the anti-Tritrichomonas effect is determined 24 to 72 hours after the inoculation of 10,000 cells of Tritrichomonas protozoa on 5 mL of liquid medium in which 5 mg of sample luliconazole is added. As the liquid medium, it is preferred to use Diamond's medium with 5% to 15% adult bovine serum added as desired.
(§1) Luliconazole was ground with a mortar to change the particle size, and the anti-Tritrichomonas activity of solid luliconazole was studied. More specifically, luliconazole having a variety of particle sizes was added in an amount of 5 mg to 5 mL of Diamond's media supplemented with 10% adult bovine serum, and 10,000 cells of Tritrichomonas mobilensis were inoculated on the media, cultured at 35° C. for 24 hours, and then measured for the number of viable T. mobilensis cells by use of a Neubauer hemocytometer. Luliconazole was not added to the control group. The growth inhibition rate was calculated as follows: [(the number of viable cells of the control group−the number of viable cells of the sample group)/the number of viable cells of the control group]×100. […] It is noted that the particle size was measured by a laser diffraction method (Microtrac MT3000, manufactured by NIKKISO CO., LTD; dispersion medium: water).

The nature of series [2]: Particle size by laser diffraction method (Microtrac MT3000). In kind it is physicochemical. As to conditions: dispersion medium: water. On the procedure: as §1
For series [3], the system named is Tritrichomonas mobilensis. The experiment in a line: Anti-Tritrichomonas effect of supernatant from medium stored with ground luliconazole. Particulars: supernatant of medium stored with 5 mg ground luliconazole at 35° C. for 24 hours. In kind it is cell-based. On the procedure:
In order to confirm the influence of luliconazole which was eluted in the solutions in Example 2, 7 minute-ground luliconazole was added in an amount of 5 mg to Diamond's medium with 10% adult bovine serum added, and stored at 35° C. for 24 hours, and the supernatant was obtained from the Diamond's medium. Tritrichomonas mobilensis was inoculated on the supernatant, cultured at 35° C. for 24 hours and measured for the number of viable cells by use of a Neubauer hemocytometer. Luliconazole was not added to the control group. The result from the control group was 973,333±23,094 while the result from the supernatant was 1,000,000±144,222. […] In this regard as well, it is clear that luliconazole can control effectively Tritrichomonas protozoa in the intestinal tract.

For series [4] the following is noted: from Lulicon Cream Pharmaceutical Product Interview Form 2006; cited from earlier work.
Series [5] has as its system Tritrichomonas mobilensis (T. mobilensis: USA: M776 c12). The experiment in a line: Activity of luliconazole in solution against Tritrichomonas mobilensis (viable count, Neubauer hemocytometer). As to conditions: luliconazole dissolved in methanol, Diamond's medium with 10% adult bovine serum, 35° C., 24 hours. The class given is cell-based. On the procedure: The activity of luliconazole against Tritrichomonas mobilensis of the genus Tritrichomonas (T. mobilensis: USA: M776 c12) was studied. Luliconazole as synthesized according to the method disclosed in the above JP 60-218387 A was used as a sample. More specifically, Tritrichomonas protozoa were cultured on Diamond's medium with 10% adult bovine serum added. Luliconazole was dissolved in 100 μL of methanol to obtain solutions having a variety concentrations of luliconazole. The cultures were then inoculated on 5 mL of 10% adult bovine serum-added Diamond's media in which the solutions were added, cultured at 35° C. for 24 hours, and then measured for the number of viable Tritrichomonas protozoa by use of a Neubauer hemocytometer. MIC and IC50 were obtained from the number of viable protozoa. MIC was 50 μg/mL and IC50 was 10. 1 μg/mL.

≈ marks a conversion by molar mass, not a printed value.

Turning to `N#C/C(=C1/SC[C@@H](c2ccc(Cl)cc2Cl)S1)n1ccnc1` [8-minute ground luliconazole, luliconazole], in series [1], the “Viable Cell Count Ave.” value is 26,667 and the “Growth Inhibition Rate” value is 84.9. In series [2], this molecule registered a D50 of 78.5 μm.

Take `N#C/C(=C1/SC[C@@H](c2ccc(Cl)cc2Cl)S1)n1ccnc1` [6-minute ground luliconazole, luliconazole]: in series [1], the “Viable Cell Count Ave.” value is 20,000 and the “Growth Inhibition Rate” value turned out to be 88.7. The D50 in series [2] is listed as 96.6 μm.

Consider `N#C/C(=C1/SC[C@@H](c2ccc(Cl)cc2Cl)S1)n1ccnc1` [5-minute ground luliconazole, luliconazole], for which, in series [1], the “Viable Cell Count Ave.” value was 43,333 and the “Growth Inhibition Rate” value turned out to be 75.5. This molecule gave a D50 in series [2] of 114.4 μm.

Turning to `N#C/C(=C1/SC[C@@H](c2ccc(Cl)cc2Cl)S1)n1ccnc1` [7-minute ground luliconazole, luliconazole], the “anti-Tritrichomonas effect of supernatant” value in series [3] is “did not have anti-Tritrichomonas effect”. The “number of viable cells” value in series [3] (culture 35° C., 24 hours, control 973,333±23,094) is on record as 1,000,000±144,222. Besides, in series [1], the “Viable Cell Count Ave.” value is 20,000 and the “Growth Inhibition Rate” value came to 88.7. Also, in series [2], the D50 came out at 84.7 μm.

As a reminder, the IC50 is the concentration needed to halve the response being measured. Read a low IC50 as higher potency. What is called MIC is the lowest concentration that inhibits growth of the organism. High values mean a need for much substance, low ones inhibition by little substance. For the molecule `N#C/C(=C1/SC[C@@H](c2ccc(Cl)cc2Cl)S1)n1ccnc1` [Luliconazole, luliconazole], in series [4], the solubility in water entry is given as “insoluble in water”. In addition, in series [5], the concentration for half-maximal inhibition (IC50) is 10.1 µg/mL (≈ 28.5 µM) and the MIC stood at 50 µg/mL (≈ 141 µM).
